{"source": "paper PMC6658769", "about": "“First-Time-in-Human Study and Prediction of Early Bactericidal Activity for GSK3036656, a Potent Leucyl-tRNA Synthetase Inhibitor for Tuberculosis Treatment” (Antimicrobial Agents and Chemotherapy, 2019)", "key": {"[1]": {"conditions": "human, in vivo"}, "M. tuberculosis": {"test_system": "M. tuberculosis", "conditions": "cited from earlier work"}}, "note": "Where two headings read alike, the source gives them in different places."}
{"molecule": "NC[C@@H](O)c1c(Cl)ccc(OCCO)c1O", "note": "[GSK3635633]", "values": [{"measurement": "% dose in pooled urine", "setting": "[1]", "result": 6, "unit": "% dose"}]}
{"molecule": "COc1nc2ccc(Br)cc2cc1[C@@H](c1ccccc1)[C@@](O)(CCN(C)C)c1cccc2ccccc12", "note": "[bedaquiline]", "values": [{"measurement": "reported average EBA0–14", "setting": "M. tuberculosis; loading doses of 700 mg on day 1 and 500 mg on day 2 and then 400 mg", "result": 0.061}]}
{"molecule": "C[C@]1(COc2ccc(N3CCC(Oc4ccc(OC(F)(F)F)cc4)CC3)cc2)Cn2cc([N+](=O)[O-])nc2O1", "note": "[delamanid]", "values": [{"measurement": "reported average EBA0–14", "setting": "M. tuberculosis; 300 mg", "result": 0.065}]}
